Patent publication US10538535B2, “Antitumoral compounds” (priority 2017, dated 2020)
Read-outs that look alike come from different tables or passages of the source.

Columns and labels:
A2780 tumors = conditions: iv, 0.5 mg/kg
Procedure: Female athymic nu/nu mice (Harlan Laboratories Models, S. L. Barcelona, Spain or Envigo, Spain) were utilized for all experiments. Animal were housed in individually ventilated cages Sealsafe® Plus, Techniplast S.P.A.), up to ten per cage on a 12-hour light-dark cycle at 21-23° C. and 40-60% humidity. […] Animals were acclimated for at least 5 days prior to tumor implantation with a tumor cell suspension.
Culture cells were passaged every 3 to 5 days upon reaching confluence. Each animal was subcutaneously implanted (on the right flank using 26 G needle and a 1 cc syringe) at 4-6 weeks of age with 10×10^6 A2780 cells suspended in 0.05 mL of a solution consisting of 50% Matrigel® (Corning Incorporated Life Sciences) and 50% medium without serum or antibiotics.
(§1) Treatment tolerability was assessed by monitoring body weight evolution, clinical signs of systemic toxicity, as well as evidences of local damage in the injection site.
(§2) In xenograft studies with other cell lines: • Tumor volume was calculated using the equation (a·b^2)/2, where a: length (longest diameter) and b: width (shortest diameter) were measured in mm by using digital caliper (Fowler Sylvac, S235PAT).
(§3) Treatments producing >20% lethality and/or 20% net body weight loss were considered toxic.

H82 tumors = test: In vivo xenograft, human lung (SCLC) H82
Procedure: Female athymic nu/nu mice (Harlan Laboratories Models, S. L. Barcelona, Spain or Envigo, Spain) were utilized for all experiments. Animal were housed in individually ventilated cages Sealsafe® Plus, Techniplast S.P.A.), up to ten per cage on a 12-hour light-dark cycle at 21-23° C. and 40-60% humidity. Mice were allowed free access to irradiated standard rodent diet (Tecklad 2914C) and sterilized water. Animals were acclimated for at least 5 days prior to tumor implantation with a tumor cell suspension.
H82 cells were grown as a suspension and maintained by addition of fresh medium, as the cell density increases, every 2 to 3 days. Every week, culture was reestablished by centrifugation of the suspension with subsequent resuspension in fresh medium at a concentration of 1×10^5 cell/ml. Animals were subcutaneously implanted (on the right flank using 26 G needle and a 1 cc syringe) at 4-6 weeks of age with 5×10^6 H82 cells, suspended in 0.05 mL of a solution consisting of 50% Matrigel® (Corning Incorporated Life Sciences) and 50% medium without serum or antibiotics.
as §1, §2, §3
Tables and figures summarize the data obtained from complete experimental groups, i.e. those groups keeping the initial number of animals, n=8-10.

H526 tumors = test: In vivo xenograft, human lung (SCLC) H526

COc1c(C)cc2c(c1O)[C@@H]1[C@@H]3[C@@H]4SC[C@]5(N[C@@H](C)Cc6c5[nH]c5ccccc65)C(=O)OC[C@@H](c5c6c(c(C)c(OC(C)=O)c54)OCO6)N3[C@@H](O)[C@H](C2)N1C [D]
Median Tumor Volume (A2780 tumors; 0 h): 168.8 mm^3 | Median Tumor Volume (A2780 tumors; 48 h): 225.7 mm^3 | Median Tumor Volume (A2780 tumors; 120 h): 256.6 mm^3 | Median Tumor Volume (A2780 tumors; 168 h): 473.8 mm^3 | Median Tumor Volume (A2780 tumors; 336 h): 1129.3 mm^3 | Median Tumor Volume (A2780 tumors; 384 h): 1198.6 mm^3 | Median Tumor Volume (A2780 tumors; 456 h): 1649.6 mm^3 | Median Tumor Volume (A2780 tumors; 504 h): 2025.0 mm^3 | Median Tumor Volume (H82 tumors; Table 33, Day 0.0, iv Days 0, 7, 14, 12-R 0.05 mg/kg, Compound D 0.5 mg/kg): 169.4 mm^3 | Median Tumor Volume (H82 tumors; Table 33, Day 2.0, iv Days 0, 7, 14, 12-R 0.05 mg/kg, Compound D 0.5 mg/kg): 340.6 mm^3 | Median Tumor Volume (H82 tumors; Table 33, Day 5.0, iv Days 0, 7, 14, 12-R 0.05 mg/kg, Compound D 0.5 mg/kg): 443.3 mm^3 | Median Tumor Volume (H82 tumors; Table 33, Day 7.0, iv Days 0, 7, 14, 12-R 0.05 mg/kg, Compound D 0.5 mg/kg): 496.2 mm^3 | Median Tumor Volume (H82 tumors; Table 33, Day 9.0, iv Days 0, 7, 14, 12-R 0.05 mg/kg, Compound D 0.5 mg/kg): 614.1 mm^3 | Median Tumor Volume (H82 tumors; Table 33, Day 12.0, iv Days 0, 7, 14, 12-R 0.05 mg/kg, Compound D 0.5 mg/kg): 665.5 mm^3 | Median Tumor Volume (H82 tumors; Table 33, Day 14.0, iv Days 0, 7, 14, 12-R 0.05 mg/kg, Compound D 0.5 mg/kg): 1041.6 mm^3 | Median Tumor Volume (H82 tumors; Table 33, Day 16.0, iv Days 0, 7, 14, 12-R 0.05 mg/kg, Compound D 0.5 mg/kg): 1151.2 mm^3 | Median Tumor Volume (H82 tumors; Table 33, Day 19.0, iv Days 0, 7, 14, 12-R 0.05 mg/kg, Compound D 0.5 mg/kg): 1516.7 mm^3 | Median Tumor Volume (H82 tumors; Table 33, Day 21.0, iv Days 0, 7, 14, 12-R 0.05 mg/kg, Compound D 0.5 mg/kg): 1748.0 mm^3 | Median Tumor Volume (H82 tumors; Table 57, Day 0, iv weekly, 47-R 0.1 mg/Kg, Compound D 0.5 mg/Kg): 169.4 mm^3 | Median Tumor Volume (H82 tumors; Table 57, Day 2, iv weekly, 47-R 0.1 mg/Kg, Compound D 0.5 mg/Kg): 340.6 mm^3 | Median Tumor Volume (H82 tumors; Table 57, Day 5, iv weekly, 47-R 0.1 mg/Kg, Compound D 0.5 mg/Kg): 443.3 mm^3 | Median Tumor Volume (H82 tumors; Table 57, Day 7, iv weekly, 47-R 0.1 mg/Kg, Compound D 0.5 mg/Kg): 496.2 mm^3 | Median Tumor Volume (H82 tumors; Table 57, Day 9, iv weekly, 47-R 0.1 mg/Kg, Compound D 0.5 mg/Kg): 614.1 mm^3 | Median Tumor Volume (H82 tumors; Table 57, Day 12, iv weekly, 47-R 0.1 mg/Kg, Compound D 0.5 mg/Kg): 665.5 mm^3 | Median Tumor Volume (H82 tumors; Table 57, Day 14, iv weekly, 47-R 0.1 mg/Kg, Compound D 0.5 mg/Kg): 1041.6 mm^3 | Median Tumor Volume (H82 tumors; Table 57, Day 16, iv weekly, 47-R 0.1 mg/Kg, Compound D 0.5 mg/Kg): 1151.2 mm^3 | Median Tumor Volume (H82 tumors; Table 57, Day 19, iv weekly, 47-R 0.1 mg/Kg, Compound D 0.5 mg/Kg): 1516.7 mm^3 | Median Tumor Volume (H82 tumors; Table 57, Day 21, iv weekly, 47-R 0.1 mg/Kg, Compound D 0.5 mg/Kg): 1748.0 mm^3 | Median Tumor Volume (H526 tumors; Table 32, Day 0.0, iv Days 0, 7, 14, 12-R 0.05 mg/kg, Compound D 0.5 mg/kg): 216.1 mm^3 | Median Tumor Volume (H526 tumors; Table 32, Day 2.0, iv Days 0, 7, 14, 12-R 0.05 mg/kg, Compound D 0.5 mg/kg): 240.9 mm^3 | Median Tumor Volume (H526 tumors; Table 32, Day 4.0, iv Days 0, 7, 14, 12-R 0.05 mg/kg, Compound D 0.5 mg/kg): 99.3 mm^3 | Median Tumor Volume (H526 tumors; Table 32, Day 7.0, iv Days 0, 7, 14, 12-R 0.05 mg/kg, Compound D 0.5 mg/kg): 56.7 mm^3 | Median Tumor Volume (H526 tumors; Table 32, Day 9.0, iv Days 0, 7, 14, 12-R 0.05 mg/kg, Compound D 0.5 mg/kg): 62.5 mm^3 | Median Tumor Volume (H526 tumors; Table 32, Day 11.0, iv Days 0, 7, 14, 12-R 0.05 mg/kg, Compound D 0.5 mg/kg): 62.5 mm^3 | Median Tumor Volume (H526 tumors; Table 32, Day 14.0, iv Days 0, 7, 14, 12-R 0.05 mg/kg, Compound D 0.5 mg/kg): 32.0 mm^3 | Median Tumor Volume (H526 tumors; Table 32, Day 16.0, iv Days 0, 7, 14, 12-R 0.05 mg/kg, Compound D 0.5 mg/kg): 4.0 mm^3 | Median Tumor Volume (H526 tumors; Table 32, Day 21.0, iv Days 0, 7, 14, 12-R 0.05 mg/kg, Compound D 0.5 mg/kg): 4.0 mm^3 | Median Tumor Volume (H526 tumors; Table 32, Day 28.0, iv Days 0, 7, 14, 12-R 0.05 mg/kg, Compound D 0.5 mg/kg): 4.0 mm^3 | Median Tumor Volume (H526 tumors; Table 32, Day 35.0, iv Days 0, 7, 14, 12-R 0.05 mg/kg, Compound D 0.5 mg/kg): 4.0 mm^3 | Median Tumor Volume (H526 tumors; Table 32, Day 42.0, iv Days 0, 7, 14, 12-R 0.05 mg/kg, Compound D 0.5 mg/kg): 4.0 mm^3 | Median Tumor Volume (H526 tumors; Table 32, Day 49.0, iv Days 0, 7, 14, 12-R 0.05 mg/kg, Compound D 0.5 mg/kg): 4.0 mm^3 | Median Tumor Volume (H526 tumors; Table 56, Day 0, iv weekly, 47-R 0.1 mg/Kg, Compound D 0.5 mg/Kg): 216.1 mm^3 | Median Tumor Volume (H526 tumors; Table 56, Day 2, iv weekly, 47-R 0.1 mg/Kg, Compound D 0.5 mg/Kg): 240.9 mm^3 | Median Tumor Volume (H526 tumors; Table 56, Day 4, iv weekly, 47-R 0.1 mg/Kg, Compound D 0.5 mg/Kg): 99.3 mm^3 | Median Tumor Volume (H526 tumors; Table 56, Day 7, iv weekly, 47-R 0.1 mg/Kg, Compound D 0.5 mg/Kg): 56.7 mm^3 | Median Tumor Volume (H526 tumors; Table 56, Day 9, iv weekly, 47-R 0.1 mg/Kg, Compound D 0.5 mg/Kg): 62.5 mm^3 | Median Tumor Volume (H526 tumors; Table 56, Day 11, iv weekly, 47-R 0.1 mg/Kg, Compound D 0.5 mg/Kg): 62.5 mm^3 | Median Tumor Volume (H526 tumors; Table 56, Day 14, iv weekly, 47-R 0.1 mg/Kg, Compound D 0.5 mg/Kg): 32.0 mm^3 | Median Tumor Volume (H526 tumors; Table 56, Day 16, iv weekly, 47-R 0.1 mg/Kg, Compound D 0.5 mg/Kg): 4.0 mm^3 | Median Tumor Volume (H526 tumors; Table 56, Day 21, iv weekly, 47-R 0.1 mg/Kg, Compound D 0.5 mg/Kg): 4.0 mm^3 | Median Tumor Volume (H526 tumors; Table 56, Day 28, iv weekly, 47-R 0.1 mg/Kg, Compound D 0.5 mg/Kg): 4.0 mm^3 | Median Tumor Volume (H526 tumors; Table 56, Day 35, iv weekly, 47-R 0.1 mg/Kg, Compound D 0.5 mg/Kg): 4.0 mm^3 | Median Tumor Volume (H526 tumors; Table 56, Day 42, iv weekly, 47-R 0.1 mg/Kg, Compound D 0.5 mg/Kg): 4.0 mm^3 | Median Tumor Volume (H526 tumors; Table 56, Day 49, iv weekly, 47-R 0.1 mg/Kg, Compound D 0.5 mg/Kg): 4.0 mm^3 | Median Tumor Volume (H526 tumors; Table 56, Day 56, iv weekly, 47-R 0.1 mg/Kg, Compound D 0.5 mg/Kg): 4.0 mm^3 | Median Tumor Volume (H526 tumors; Table 56, Day 63, iv weekly, 47-R 0.1 mg/Kg, Compound D 0.5 mg/Kg): 4.0 mm^3 | Median Tumor Volume (H526 tumors; Table 56, Day 70, iv weekly, 47-R 0.1 mg/Kg, Compound D 0.5 mg/Kg): 4.0 mm^3 | Median Tumor Volume (H526 tumors; Table 56, Day 77, iv weekly, 47-R 0.1 mg/Kg, Compound D 0.5 mg/Kg): 4.0 mm^3 | Median Tumor Volume (H526 tumors; Table 56, Day 84, iv weekly, 47-R 0.1 mg/Kg, Compound D 0.5 mg/Kg): 4.0 mm^3 | Median Tumor Volume (H526 tumors; Table 56, Day 91, iv weekly, 47-R 0.1 mg/Kg, Compound D 0.5 mg/Kg): 4.0 mm^3 | Median Tumor Volume (H526 tumors; Table 56, Day 98, iv weekly, 47-R 0.1 mg/Kg, Compound D 0.5 mg/Kg): 4.0 mm^3 | Median Tumor Volume (H526 tumors; Table 56, Day 105, iv weekly, 47-R 0.1 mg/Kg, Compound D 0.5 mg/Kg): 4.0 mm^3 | Median Tumor Volume (H526 tumors; Table 56, Day 112, iv weekly, 47-R 0.1 mg/Kg, Compound D 0.5 mg/Kg): 4.0 mm^3 | Median Tumor Volume (H526 tumors; Table 56, Day 119, iv weekly, 47-R 0.1 mg/Kg, Compound D 0.5 mg/Kg): 4.0 mm^3 | Median Tumor Volume (H526 tumors; Table 56, Day 126, iv weekly, 47-R 0.1 mg/Kg, Compound D 0.5 mg/Kg): 4.0 mm^3 | Median Tumor Volume (H526 tumors; Table 56, Day 133, iv weekly, 47-R 0.1 mg/Kg, Compound D 0.5 mg/Kg): 4.0 mm^3 | Median Tumor Volume (H526 tumors; Table 56, Day 140, iv weekly, 47-R 0.1 mg/Kg, Compound D 0.5 mg/Kg): 4.0 mm^3 | Median Tumor Volume (H526 tumors; Table 56, Day 147, iv weekly, 47-R 0.1 mg/Kg, Compound D 0.5 mg/Kg): 4.0 mm^3 | Median Tumor Volume (H526 tumors; Table 56, Day 165, iv weekly, 47-R 0.1 mg/Kg, Compound D 0.5 mg/Kg): 4.0 mm^3 | Median Tumor Volume (H526 tumors; Table 56, Day 175, iv weekly, 47-R 0.1 mg/Kg, Compound D 0.5 mg/Kg): 4.0 mm^3 | Median Tumor Volume (H526 tumors; Table 56, Day 191, iv weekly, 47-R 0.1 mg/Kg, Compound D 0.5 mg/Kg): 4.0 mm^3 | Median Tumor Volume (H526 tumors; Table 56, Day 205, iv weekly, 47-R 0.1 mg/Kg, Compound D 0.5 mg/Kg): 4.0 mm^3
